In PubChem BioAssay AID330 (DTP/NCI, 2004):
“And” between values parts separate entries of the source, which are not always exact repeats. Equal values may be shown once. Toxic doses and inconclusive results are not listed.

Test system: P388 leukemia ip, CD2F1 mice, survival T/C
Assay: NCI In Vivo Anticancer Drug Screen. Data for tumor model P388 Leukemia (intraperitoneal) in CD2F1 (CDF1) mice
Conditions: endpoint: median survival time, higher = longer survival
Summary of the method: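 Mice carrying the transplanted tumor received test compound or vehicle. Survival was recorded in each group, and the value is the treated-group measurement divided by that of the vehicle-treated control group.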

[1] = dose: 50.0 mg/kg/injection, schedule: Q01DX009 (ip), vehicle: saline
[2] = dose: 100.0 mg/kg/injection, schedule: Q01DX009 (ip), vehicle: saline
[3] = dose: 200.0 mg/kg/injection, schedule: Q01DX009 (ip), vehicle: saline
[4] = dose: 6.25 mg/kg/injection, schedule: Q01DX009 (ip), vehicle: saline with Tween-80
[5] = dose: 12.5 mg/kg/injection, schedule: Q01DX009 (ip), vehicle: saline with Tween-80
[6] = dose: 25.0 mg/kg/injection, schedule: Q01DX009 (ip), vehicle: saline with Tween-80
[7] = dose: 50.0 mg/kg/injection, schedule: Q01DX005 (ip), vehicle: Klucel (hydroxypropylcellulose) (HPC)
[8] = dose: 100.0 mg/kg/injection, schedule: Q01DX005 (ip), vehicle: Klucel (hydroxypropylcellulose) (HPC)
[9] = dose: 200.0 mg/kg/injection, schedule: Q01DX005 (ip), vehicle: Klucel (hydroxypropylcellulose) (HPC)
[10] = dose: 100.0 mg/kg/injection, schedule: Q01DX001 (ip), vehicle: saline with Tween-80
[11] = dose: 200.0 mg/kg/injection, schedule: Q01DX001 (ip), vehicle: saline with Tween-80
[12] = dose: 400.0 mg/kg/injection, schedule: Q01DX001 (ip), vehicle: saline with Tween-80
[13] = dose: 15.0 mg/kg/injection, schedule: Q01DX005 (ip), vehicle: saline with Tween-80
[14] = dose: 60.0 mg/kg/injection, schedule: Q01DX005 (ip), vehicle: saline with Tween-80
[15] = dose: 240.0 mg/kg/injection, schedule: Q01DX005 (ip), vehicle: saline with Tween-80
[16] = dose: 120.0 mg/kg/injection, schedule: Q01DX005 (ip), vehicle: saline with Tween-80

CC1=NN(c2cccc(S(=O)(=O)O)c2)C(=O)C1N=Nc1cc(Cl)cc(S(=O)(=O)O)c1O.O.[Cr] (centres undefined)
T/C [1]: 114 % of control | T/C [2]: 108 % of control | T/C [3]: 115 % of control

CCCCc1nc2cc(CN3CCN(C(c4ccccc4)c4ccccc4)CC3)ccc2n1CC
T/C [4]: 95 % of control | T/C [5]: 101 % of control | T/C [6]: 100 % of control

NC(=O)/C(N=Nc1ccccc1C(=O)O)=N\Nc1ccccc1C(=O)O
T/C [7]: 94 % of control | T/C [8]: 95 % of control | T/C [9]: 103 % of control

O=C(Nc1cc(Cl)ccc1Cl)/C(Cl)=C1/Sc2ccccc2NC1=O
T/C [10]: 108 % of control | T/C [11]: 90 % of control | T/C [12]: 90 % of control

CCCn1c(Cl)c(/C=N\Nc2ccccc2[N+](=O)[O-])c2ccccc21
T/C [10]: 92 % of control | T/C [11]: 92 % of control | T/C [12]: 93 % of control

CN(C)C1c2cc(Cl)ccc2-c2c(N)cc(Cl)cc21 (centres undefined)
T/C [7]: 103 % of control | T/C [8]: 99 % of control | T/C [9]: 91 % of control

C1CCCCC2=NCCC(CCCC1)C2 (centres undefined)
T/C [7]: 103 % of control | T/C [8]: 107 % of control

N#CN1C2C=CC(c3ccccc3)NC21 (centres undefined)
T/C (dose: 50.0 mg/kg/injection, schedule: Q01DX009 (ip), vehicle: saline with Tween-80): 100 % of control | T/C (dose: 100.0 mg/kg/injection, schedule: Q01DX009 (ip), vehicle: saline with Tween-80): 96 % of control

CC1=C(C(N)=O)C(/C=C/c2ccccc2)NC(=S)N1 (centres undefined)
T/C (dose: 60.0 mg/kg/injection, schedule: Q01DX005 (ip), vehicle: Klucel (hydroxypropylcellulose) (HPC)): 106 % of control | T/C (dose: 120.0 mg/kg/injection, schedule: Q01DX005 (ip), vehicle: Klucel (hydroxypropylcellulose) (HPC)): 100 % of control | T/C (dose: 240.0 mg/kg/injection, schedule: Q01DX005 (ip), vehicle: Klucel (hydroxypropylcellulose) (HPC)): 100 % of control

O=c1[nH]cccc1[N+](=O)[O-]
T/C (dose: 100.0 mg/kg/injection, schedule: Q04DX003 (ip), vehicle: saline with Tween-80): 100 % of control | T/C (dose: 200.0 mg/kg/injection, schedule: Q04DX003 (ip), vehicle: saline with Tween-80): 100 % of control | T/C (dose: 400.0 mg/kg/injection, schedule: Q04DX003 (ip), vehicle: saline with Tween-80): 109 % of control | T/C (dose: 600.0 mg/kg/injection, schedule: Q01DX009 (ip), vehicle: saline): 90 % of control and 93 % of control

COc1ccc2c(CSCCO)cc(=O)oc2c1
T/C (dose: 50.0 mg/kg/injection, schedule: Q04DX003 (ip), vehicle: suspension in saline): 97 % of control | T/C (dose: 100.0 mg/kg/injection, schedule: Q04DX003 (ip), vehicle: suspension in saline): 100 % of control | T/C (dose: 200.0 mg/kg/injection, schedule: Q04DX003 (ip), vehicle: suspension in saline): 98 % of control

CCCCCCC(O)Cc1cc(-c2ccccc2)nc(=O)[nH]1 (centres undefined)
T/C [13]: 97 % of control | T/C [14]: 87 % of control | T/C [15]: 95 % of control

N#Cc1ccc(NN=NCCO)cc1
T/C (dose: 12.5 mg/kg/injection, schedule: Q01DX009 (ip), vehicle: distilled water + Tween-80): 100 % of control | T/C (dose: 25.0 mg/kg/injection, schedule: Q01DX009 (ip), vehicle: distilled water + Tween-80): 102 % of control | T/C (dose: 50.0 mg/kg/injection, schedule: Q01DX009 (ip), vehicle: distilled water + Tween-80): 100 % of control | T/C (dose: 100.0 mg/kg/injection, schedule: Q01DX009 (ip), vehicle: distilled water + Tween-80): 102 % of control

O=C(CN1CCNCC1)N1CCOCC1
T/C (dose: 50.0 mg/kg/injection, schedule: Q01DX005 (ip), vehicle: saline): 100 % of control | T/C (dose: 100.0 mg/kg/injection, schedule: Q01DX005 (ip), vehicle: saline): 102 % of control | T/C (dose: 200.0 mg/kg/injection, schedule: Q01DX005 (ip), vehicle: saline): 97 % of control

c1ccc(Nc2ccncc2)cc1
T/C (dose: 1.56 mg/kg/injection, schedule: Q01DX009 (ip), vehicle: saline): 95 % of control | T/C (dose: 3.12 mg/kg/injection, schedule: Q01DX009 (ip), vehicle: saline): 95 % of control | T/C (dose: 6.25 mg/kg/injection, schedule: Q01DX009 (ip), vehicle: saline): 100 % of control | T/C (dose: 12.5 mg/kg/injection, schedule: Q01DX009 (ip), vehicle: saline): 100 % of control | T/C (dose: 25.0 mg/kg/injection, schedule: Q04DX003 (ip), vehicle: saline sonified): 100 % of control | T/C (dose: 50.0 mg/kg/injection, schedule: Q04DX003 (ip), vehicle: saline sonified): 90 % of control | T/C (dose: 100.0 mg/kg/injection, schedule: Q04DX003 (ip), vehicle: saline sonified): 100 % of control

Cc1cccc(Cl)c1NC(=O)C(C)C
T/C (dose: 100.0 mg/kg/injection, schedule: Q04DX003 (ip), vehicle: other): 104 % of control | T/C (dose: 200.0 mg/kg/injection, schedule: Q04DX003 (ip), vehicle: other): 109 % of control | T/C (dose: 400.0 mg/kg/injection, schedule: Q04DX003 (ip), vehicle: other): 90 % of control

CC(=O)Nc1ccc(S(=O)(=O)N/N=C/c2cccc([N+](=O)[O-])c2O)cc1
T/C [14]: 104 % of control | T/C [16]: 104 % of control | T/C [15]: 103 % of control

CSc1nc(C)c(C(=O)CCN2CCN(c3ccccn3)CC2)s1
T/C (dose: 60.0 mg/kg/injection, schedule: Q01DX005 (ip), vehicle: saline): 104 % of control | T/C (dose: 120.0 mg/kg/injection, schedule: Q01DX005 (ip), vehicle: saline): 113 % of control

C[C@@H]1CC[C@@]2(NC1)O[C@H]1C[C@H]3[C@@H]4CCC5=CC(=O)CC[C@]5(C)[C@H]4CC[C@]3(C)[C@H]1[C@@H]2C
T/C (dose: 15.0 mg/kg/injection, schedule: Q01DX009 (ip), vehicle: saline with Tween-80): 102 % of control | T/C (dose: 30.0 mg/kg/injection, schedule: Q01DX009 (ip), vehicle: saline with Tween-80): 100 % of control | T/C (dose: 60.0 mg/kg/injection, schedule: Q01DX009 (ip), vehicle: saline with Tween-80): 99 % of control | T/C (dose: 120.0 mg/kg/injection, schedule: Q01DX009 (ip), vehicle: saline with Tween-80): 93 % of control

C1C[O][Ge]2([O]1)[O]CC[O]2
T/C [1]: 108 % of control | T/C [2]: 101 % of control | T/C [3]: 102 % of control

CC(C)=C1CC(C)(C)N2CCCC12 (centres undefined)
T/C [7]: 100 % of control

O=C(O)C(c1ccccc1)N1C(=O)C(Cl)=C(Cl)C1=O (centres undefined)
T/C [13]: 94 % of control | T/C (dose: 30.0 mg/kg/injection, schedule: Q01DX005 (ip), vehicle: saline with Tween-80): 100 % of control | T/C [14]: 103 % of control and 112 % of control

COc1ccc2c(N3CCN(C(=O)C(Cl)(Cl)Cl)CC3)cc(C)nc2c1
T/C [14]: 103 % of control | T/C [16]: 104 % of control | T/C [15]: 102 % of control

CN1CCCC1CCNc1nc(Nc2ccc(Cl)c(Cl)c2)nc2ccc(Cl)cc12 (centres undefined)
T/C [4]: 95 % of control | T/C [5]: 90 % of control | T/C [6]: 100 % of control

CCOC(=O)C(NC(=O)C1(O)C(O)C2(CC)C=CCN3CCC4(c5cc(C6(C(=O)OC)CC7CN(CCc8c6[nH]c6ccccc86)CC(O)(CC)C7)c(OC)cc5N(C)C14)C32)C(C)CC (centres undefined)
T/C (dose: 1.0 mg/kg/injection, schedule: Q01DX001 (ip), vehicle: saline): 124 % of control | T/C (dose: 2.0 mg/kg/injection, schedule: Q01DX001 (ip), vehicle: saline): 155 % of control | T/C (dose: 4.0 mg/kg/injection, schedule: Q01DX001 (ip), vehicle: saline): 181 % of control | T/C (dose: 8.0 mg/kg/injection, schedule: Q01DX001 (ip), vehicle: saline): 172 % of control and 203 % of control | T/C (dose: 16.0 mg/kg/injection, schedule: Q01DX001 (ip), vehicle: saline): 191 % of control

Cc1cc(OC(=O)Nc2ccc(Cl)c([N+](=O)[O-])c2)c(Cl)cc1Br
T/C (dose: 50.0 mg/kg/injection, schedule: Q01DX009 (ip), vehicle: saline + alcohol): 100 % of control | T/C (dose: 100.0 mg/kg/injection, schedule: Q01DX009 (ip), vehicle: saline + alcohol): 105 % of control | T/C (dose: 200.0 mg/kg/injection, schedule: Q01DX009 (ip), vehicle: saline + alcohol): 88 % of control

CN(C)C1=CC(=O)c2ccccc2C12CO2 (centres undefined)
T/C [10]: 106 % of control | T/C [11]: 100 % of control
